Reference: PMC7221826, “5-Oxo-hexahydroquinoline Derivatives and Their Tetrahydroquinoline Counterparts as Multidrug Resistance Reversal Agents” (Molecules, 2020)
“Also recorded” adds a separate entry of the source. Where two headings read alike, the source gives them in different places.

What was measured:
P-gp = molecular target: T1, P-gp (Homo sapiens, UniProt P08183); test: MDR reversal assay: flow cytometric detection of Rhodamine123 efflux/accumulation in MES-SA-DX5 cells; assay type: cell-based; conditions: compounds at 5, 10 and 25 µM, 5 µM Rh123
T1 construct: MES-SA-DX5 is a resistant cell line, which overexpresses P-gp as a result of constant exposure to doxorubicin; host or cells: MES-SA-DX5 human uterine sarcoma cells
T1 sequence (P08183 whole entry): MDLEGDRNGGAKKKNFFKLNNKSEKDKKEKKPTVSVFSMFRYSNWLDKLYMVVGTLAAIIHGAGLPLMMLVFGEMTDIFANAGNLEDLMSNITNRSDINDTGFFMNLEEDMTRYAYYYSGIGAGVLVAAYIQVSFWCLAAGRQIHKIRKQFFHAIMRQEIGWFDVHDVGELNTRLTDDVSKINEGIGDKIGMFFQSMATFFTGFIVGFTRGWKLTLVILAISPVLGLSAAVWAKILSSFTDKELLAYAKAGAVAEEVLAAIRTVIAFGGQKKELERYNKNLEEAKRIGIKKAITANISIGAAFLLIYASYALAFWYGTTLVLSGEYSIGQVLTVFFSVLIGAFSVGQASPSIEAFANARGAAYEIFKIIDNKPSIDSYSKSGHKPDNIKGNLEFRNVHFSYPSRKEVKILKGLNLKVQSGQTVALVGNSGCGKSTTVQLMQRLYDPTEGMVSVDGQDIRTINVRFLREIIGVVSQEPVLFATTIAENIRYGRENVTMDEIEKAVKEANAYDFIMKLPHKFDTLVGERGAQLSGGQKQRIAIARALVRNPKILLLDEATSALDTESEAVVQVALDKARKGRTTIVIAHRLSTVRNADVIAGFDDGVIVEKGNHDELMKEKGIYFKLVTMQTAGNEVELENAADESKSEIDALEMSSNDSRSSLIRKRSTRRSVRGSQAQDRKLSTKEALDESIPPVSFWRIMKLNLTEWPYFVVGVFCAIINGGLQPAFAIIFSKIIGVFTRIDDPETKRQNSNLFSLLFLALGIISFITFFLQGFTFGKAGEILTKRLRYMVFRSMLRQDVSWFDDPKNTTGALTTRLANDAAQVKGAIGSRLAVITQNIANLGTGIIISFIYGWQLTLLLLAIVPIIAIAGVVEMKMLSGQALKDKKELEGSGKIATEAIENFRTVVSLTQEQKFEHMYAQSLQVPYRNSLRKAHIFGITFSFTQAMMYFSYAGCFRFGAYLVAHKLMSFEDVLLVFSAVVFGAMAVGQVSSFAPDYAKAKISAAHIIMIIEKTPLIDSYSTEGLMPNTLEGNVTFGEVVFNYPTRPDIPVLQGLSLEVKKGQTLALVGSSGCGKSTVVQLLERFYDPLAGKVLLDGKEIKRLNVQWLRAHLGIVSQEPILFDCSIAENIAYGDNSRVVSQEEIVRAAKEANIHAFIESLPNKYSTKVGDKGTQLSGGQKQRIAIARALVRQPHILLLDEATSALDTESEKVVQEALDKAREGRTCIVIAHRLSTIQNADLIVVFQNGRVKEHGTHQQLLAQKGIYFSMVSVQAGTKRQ
Procedure: Rhodamine 123 (Rh123) is a well-known substrate of P-gp and it is readily pumped out of the cells by this ABC transporter. The amount of retained Rh123 in the cells indicates the efflux function of the target transporter. Flow cytometric analysis was used for assessment of intracellular Rh123 as previously described.
Briefly, a suspension of the multidrug resistant uterine sarcoma MES-SA-DX5 cells at a density of 5 × 10^5 cells/mL in growth medium was prepared. Four-hundred microliters (400 µL) of the synthesized compounds with final concentration of 5, 10, and 25 µM were added to 500 µL of the cell suspension. Verapamil was also tested as a positive control. After an incubation of 20 min, 50 µL of Rh123 at a final concentration of 5 µM was added and incubated for further 30 min at 37 °C. The cells were then centrifuged and washed twice with ice-cold PBS, and then resuspended in PBS and kept on ice. Rh123 accumulated in cells was then quantified by a FACSCalibur flow cytometer (Becton Dickinson, San Jose, CA, USA) with excitation and emission wavelengths of 488 and 530 nm, respectively. Geometric means of fluorescence intensity values were determined using Flowing Software (http://flowingsoftware.btk.fi/).
Accumulation of Rhodamine123 (Rh123), caused by inhibition of P-gp-mediated efflux, was determined by flow cytometry in the multidrug resistant uterine sarcoma MES-SA-DX5 cell line. Verapamil was used as a positive control. MES-SA-DX5 is a resistant cell line, which overexpresses P-gp as a result of constant exposure to doxorubicin. Alterations in the amount of the fluorescent Rh123 retained inside the MES-SA-DX5 cells can be plausibly related to the inhibition of the activity of P-gp efflux pump in the cells (Figure 1). The ratio of the geometric mean value of cells treated with synthesized compounds to the geometric mean value of the control untreated cells are show in Figure 2.
Figure 2 MDR reversal assessed by flow cytometric detection of Rhodamine123 efflux in MES-SA-DX5 cells. Cells were suspended in RPMI 1640 and treated with verapamil (Ver, positive control) or synthesized derivatives. After incubation for 20 min, 5 μM Rh123 was added, the cells were incubated for another […] at 37 °C and then centrifuged and washed twice with ice-cold PBS and resuspended in PBS. The fluorescence caused by the presence of Rh123 in cells was measured using a flow cytometer with excitation and emission wavelengths of 488 nm and 530 nm, respectively. The values represent the mean ± S.E.M. of 3–5 experiments. * The difference between treated and controlled cells are statistically significant (p ˂ 0.05).

MES-SA-DX5 cells = test: Cell cycle analysis by propidium iodide (PI)-RNase flow cytometry; assay type: cell-based, human; parameters: Sub G1: unit not given here; conditions: 24 h
Procedure: The analysis of cells in different phases of cell cycle and sub-G1 was performed using propidium iodide (PI)-RNase assay by flow cytometry. MES-SA-DX5 cells were seeded in 12-well plates (1 × 10^6 cells/well) and treated with different concentrations of synthesized compounds for 24 h. The cells were then collected, washed with PBS, and fixed with 70% ethanol overnight at –20 °C. After at least 24 h, fixed cells were washed with PBS and subsequently stained with a DNA staining solution containing PI 20 μg/mL and RNase 200 μg/mL at room temperature for 30 min in the dark. Twenty thousand cells of each sample were analyzed using a BD FACSCalibur flow cytometer (BD Biosciences, USA) and the amount of the cells in sub-G1, G0/G1, S, and G2/M phases were estimated using CellQuest (Becton Dickinson, San Jose, CA, USA) software.
Therefore, it could be concluded that these compounds cause cytotoxicity in drug resistant MES-SA-DX5 cells by induction of apoptosis in these cells.
Figure 3 Effect of synthesized derivatives on cell cycle alterations in MES-SA-DX5 drug resistant cells. The cells in different phases of cell cycle were monitored using propidium iodide (PI)-RNase assay by flow cytometry. MES-SA-DX5 cells were seeded in 12-well plates (1 × 10^6 cells/well) and treated with different concentrations of synthesized compounds for 24 h. The cells were then collected, washed with PBS and fixed with 70% ethanol overnight at –20 °C. After at least 24 h, fixed cells were washed with PBS and subsequently stained with a DNA staining solution containing PI 20 μg/mL and RNase 200 μg/mL at room temperature for 30 min in the dark. Twenty thousand cells of each sample were analyzed using a FACS Calibur flow cytometer (BD Biosciences, USA). Representative histograms of cells treated with synthesized compounds are shown. An increase in sub-G1 phase cells could be observed after treatment with A1, A2, B1, and B2 compounds.

MCF-7 = test: MTT cell viability assay, MCF-7; assay type: cell-based, human; conditions: Homo sapiens, MCF7, 72 h, read-out: IC50 (µM) in Cultured Cells MCF-7
Excerpt: (§1) Cell lines used for cytotoxicity assays included MCF-7 (human breast adenocarcinoma), A549 (human lung adenocarcinoma), K562 (human chronic myelogenous leukemia) and HEK-293 (human embryonic kidney) cells and were obtained from the Iranian Biological Resource Center, Tehran, Iran. MES-SA-DX5 multidrug resistant human uterine sarcoma, over-expressing P-gp and their parental non-resistant MES-SA cell lines were purchased from Sigma-Aldrich (St. Louis, MO, USA). All cells, except for HEK-293, were cultured in RPMI 1640 supplemented with 10% FBS and 100 units/mL penicillin-streptomycin at 37 °C in humidified air containing 5% CO2. HEK-293 cells were maintained in DMEM-F12 medium containing L-glutamine 2 mM supplemented with FBS and penicillin-streptomycin. MES-SA-DX5 cells were maintained in media containing 100 nM doxorubicin in order to ensure that only drug-resistant cells continue to grow.
(§2) Cytotoxicity of the test compounds were evaluated by MTT assay. In this method, reduction of MTT, a yellow tetrazolium salt to the purple formazan, by cellular dehydrogenase enzymes is determined as an index of cell viability. Cancer cells were seeded into 96-well plates (3–5 × 10^3 cells/well) and incubated for 24 h at 37 °C. Afterwards, four different concentrations of synthesized derivatives were added in triplicate and the cells were incubated at 37 °C for another 72 h, after which the media was replaced with MTT solution at a concentration of 0.5 mg/mL was added for MTT assay. After another 4h, formazan crystals were dissolved in 200 μL DMSO for 90 min and absorbance was measured at a wavelength of 570 nm with background correction at 650 nm using a microplate reader (model 680, Bio-Rad, Hercules, CA, USA) and IC50 for each compound was calculated with CurveExpert version 1.34 for Windows.

A-549 = test: MTT cell viability assay, A-549; assay type: cell-based, human; conditions: Homo sapiens, A549, 72 h, read-out: IC50 (µM) in Cultured Cells A-549
Excerpt: as §1, §2

K562 = test: MTT cell viability assay, K562; assay type: cell-based, human; conditions: Homo sapiens, K562, 72 h, read-out: IC50 (µM) in Cultured Cells K562
Excerpt: as §1, §2

MES-SA-DX5 = test: MTT cell viability assay, MES-SA-DX5; assay type: cell-based, human; conditions: Homo sapiens, MES-SA/Dx5, 72 h, multidrug resistant, P-gp overexpressing, read-out: IC50 (µM) in Cultured Cells MES-SA-DX5
Excerpt: as §1, §2

MES-SA = test: MTT cell viability assay, MES-SA; assay type: cell-based, human; conditions: MTT; for IC50: Homo sapiens, MES-SA, 72 h, parental non-resistant, read-out: IC50 (µM) in Cultured Cells MES-SA
Excerpt: as §1, §2

HEK-293 = test: MTT cell viability assay, HEK-293; assay type: cell-based, human; conditions: non-cancerous, read-out: IC50 (µM) in Cultured Cells HEK-293
Excerpt: as §1, §2

Compound	P-gp inhibitory activity (Rh123 accumulation) (P-gp)	G0/G1 (MES-SA-DX5 cells; 10 µM)	G2/M (MES-SA-DX5 cells; 10 µM)	S (MES-SA-DX5 cells; 10 µM)	Sub G1 (MES-SA-DX5 cells; 10 µM)	G0/G1 (MES-SA-DX5 cells; 25 µM)	G2/M (MES-SA-DX5 cells; 25 µM)	S (MES-SA-DX5 cells; 25 µM)	Sub G1 (MES-SA-DX5 cells; 25 µM)	S (MES-SA-DX5 cells; 100 µM)	IC50 (MCF-7) [µM]	IC50 (A-549) [µM]	IC50 (K562) [µM]	IC50 (MES-SA-DX5) [µM]	IC50 (MES-SA) [µM]	IC50 (HEK-293; Homo sapiens, HEK293, 72 h) [µM]	melting point [°C]	G0/G1 (MES-SA-DX5 cells; 100 µM)	G2/M (MES-SA-DX5 cells; 100 µM)	IC50 (HEK-293; 72 h) [µM]	further results
CC1=C(C(=O)Nc2csc(C)n2)C(c2ccc(Cl)cc2Cl)C2=C(CCCC2=O)N1 (centres unmarked) [Compound A1, 4-(2,4-Dichlorophenyl)-2-methyl-N-(2-methylthiazol-4-yl)-5-oxo-1,4,5,6,7,8-hexahydroquinoline-3-carboxamide]	significantly blocked P-gp efflux; also recorded: highest P-gp inhibitory activities	52.32 ± 1.8	25.12 ± 1.7	21.85 ± 1.0	0.61 ± 0.2	53.30 ± 0.9	25.01 ± 0.7	20.96 ± 1.2	0.71 ± 0.2	21.12 ± 1.6	72.5 ± 11.9	48.8 ± 1.3	15 ± 0.5	40.1 ± 4.7	64.1 ± 19.4	28.6 ± 4.3	195	–	–	–	–
CC1=C(C(=O)Nc2csc(C)n2)C(c2ccc(Br)cc2)C2=C(CCCC2=O)N1 (centres unmarked) [Compound A2, 4-(4-Bromophenyl)-2-methyl-N-(2-methylthiazol-4-yl)-5-oxo-1,4,5,6,7,8-hexahydroquinoline-3-carboxamide]	significantly blocked P-gp efflux; also recorded: highest P-gp inhibitory activities	56.45 ± 1.1	23.45 ± 0.2	18.90 ± 0.2	1.21 ± 0.7	59.47 ± 3.0	20.23 ± 0.7	18.53 ± 1.7	1.71 ± 1.1	19.27 ± 0.3	56.7 ± 3.6	87.1 ± 6.7	31 ± 2.7	31.5 ± 1.5	> 100	> 50	273	50.57 ± 2.8	18.37 ± 2.6	63.1 ± 7.4	effect against parental non-resistant MES-SA cells (MES-SA): did not show any effect
Cc1nc(NC(=O)c2c(C)nc3c(c2-c2ccc(Cl)cc2Cl)C(=O)CCC3)cs1 [Compound B1, 4-(2,4-Dichlorophenyl)-2-methyl-N-(2-methylthiazol-4-yl)-5-oxo-5,6,7,8-tetrahydroquinoline-3-carboxamide]	significantly blocked P-gp efflux	49.10 ± 3.7	29.03 ± 2.1	21.27 ± 2.1	0.64 ± 0.1	51.13 ± 2.4	27.03 ± 0.6	20.90 ± 2.0	0.91 ± 0.0	25.17 ± 0.7	47.1 ± 2.1	60 ± 3	6.7 ± 0.6	39.8 ± 1.6	55.6 ± 2.4	39.9 ± 5.4	248	–	–	–	–
Cc1nc(NC(=O)c2c(C)nc3c(c2-c2ccc(Cl)cc2)C(=O)CCC3)cs1 [Compound B5, 4-(4-Chlorophenyl)-2-methyl-N-(2-methylthiazol-4-yl)-5-oxo-5,6,7,8-tetrahydroquinoline-3-carboxamide]	–	53.87 ± 0.7	27.27 ± 2.6	18.13 ± 1.9	0.62 ± 0.1	55.43 ± 1.3	26.07 ± 2.7	17.73 ± 1.3	0.69 ± 0.1	13.62 ± 0.8	89.5 ± 3.5	91 ± 4.6	10.4 ± 1.5	62.3 ± 5.5	> 100	> 50	251	57.58 ± 0.9	26.87 ± 0.9	64.2 ± 1.1	–
